Values of other authors, collected in patent publication US20130226549A1, “STRUCTURE-BASED FRAGMENT HOPPING FOR LEAD OPTIMIZATION AND IMPROVEMENT IN SYNTHETIC ACCESSIBILITY” (priority 2012, published 2013).
Like-named read-outs stand apart in the source and are kept apart here.

Biological target: T1, human 5-LOX (Homo sapiens, UniProt P09917)
T1 sequence (P09917 1-674): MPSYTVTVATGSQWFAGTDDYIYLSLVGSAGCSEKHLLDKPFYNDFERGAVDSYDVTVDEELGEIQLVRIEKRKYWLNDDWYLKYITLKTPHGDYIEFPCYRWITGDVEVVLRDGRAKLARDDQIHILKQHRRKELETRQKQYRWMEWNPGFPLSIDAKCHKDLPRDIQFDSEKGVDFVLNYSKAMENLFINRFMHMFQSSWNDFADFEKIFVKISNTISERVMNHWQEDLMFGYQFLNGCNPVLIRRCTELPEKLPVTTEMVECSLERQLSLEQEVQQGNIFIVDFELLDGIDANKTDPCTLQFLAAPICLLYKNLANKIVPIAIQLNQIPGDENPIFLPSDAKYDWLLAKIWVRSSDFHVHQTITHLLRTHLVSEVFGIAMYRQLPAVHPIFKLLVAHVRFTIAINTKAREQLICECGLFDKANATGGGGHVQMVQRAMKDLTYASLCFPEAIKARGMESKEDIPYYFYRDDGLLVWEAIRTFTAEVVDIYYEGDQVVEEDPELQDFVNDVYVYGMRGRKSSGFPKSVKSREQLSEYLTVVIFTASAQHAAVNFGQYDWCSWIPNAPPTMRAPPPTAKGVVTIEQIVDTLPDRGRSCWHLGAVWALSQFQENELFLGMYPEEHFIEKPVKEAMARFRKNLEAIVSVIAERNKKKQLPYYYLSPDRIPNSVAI
Settings: from the literature

[1] = 5-LOX, LeadOp+R example, read-out: Inhibition IC50

Row | Compound | IC50 (human 5-LOX, LeadOp example, read-out: IC50) [nM] | IC50 [1] [nM]
1 | O=c1cc(-c2ccc(F)cc2)c2ccc(CCc3ncc(C(O)(C(F)(F)F)C(F)(F)F)s3)cc2o1 [compound H] | 64 | 
2 | CCC(O)(c1cnc(Sc2ccc3c(-c4ccc(F)cc4)cc(=O)oc3c2)s1)C(F)(F)F (stereo not shown) [rB1] |  | 7 ± 2
3 | O=c1cc(-c2ccc(F)cc2)c2ccc(CCc3ncc(C(O)(C(F)(F)F)C(F)(F)F)s3)cc2o1 [rB3] |  | 64 ± 3
4 | CN(Cc1ccc2c(-c3ccc(F)cc3)cc(=O)oc2c1)c1ncc(C(O)(C(F)(F)F)C(F)(F)F)s1 [rB, reference compound] |  | 145
